In patent publication US20120316184A1, “NOVEL MICROBICIDES” (SYNGENTA CROP PROTECTION LLC, priority 2010, published 2012):

Tests used:
[1] = tested on: Mycosphaerella arachidis (Cercospora arachidicola); experiment: Fungicidal activity against Mycosphaerella arachidis (Cercospora arachidicola) / liquid culture (early leaf spot); format: cell-based; conditions: liquid culture (PDB), inhibition of growth determined photometrically 4-5 days after application, read-out: disease control
Description: Fungicidal Activity Against Mycosphaerella arachidis (Cercospora arachidicola)/Liquid Culture (Early Leaf Spot) Conidia of the fungus from cryogenic storage were directly mixed into nutrient broth (PDB potato dextrose broth). After placing a (DMSO) solution of test compound into a microtiter plate (96-well format), the nutrient broth containing the fungal spores was added. The test plates were incubated at 24° C. and the inhibition of growth was determined photometrically 4-5 days after application.

[2] = tested on: Mycosphaerella graminicola (Septoria tritici); experiment: Fungicidal activity against Mycosphaerella graminicola (Septoria tritici) / liquid culture (Septoria blotch); format: cell-based; conditions: Zymoseptoria tritici, liquid culture (PDB), inhibition of growth determined photometrically 4-5 days after application, read-out: disease control
Description: Fungicidal Activity Against Mycosphaerella graminicola (Septoria tritici)/Liquid Culture (Septoria Blotch) Conidia of the fungus from cryogenic storage were directly mixed into nutrient broth (PDB potato dextrose broth). After placing a (DMSO) solution of test compound into a microtiter plate (96-well format), the nutrient broth containing the fungal spores was added. The test plates were incubated at 24° C. and the inhibition of growth was determined photometrically 4-5 days after application.

[3] = tested on: Puccinia recondita f. sp. tritici; experiment: Fungicidal activity against Puccinia recondita f. sp. tritici / wheat / leaf disc preventative (brown rust); format: in vivo; conditions: foliar, wheat leaf segments cv. Kanzler, inoculated 1 day after application, assessed 7-9 days after application, vs untreated, read-out: disease control
Description: Fungicidal Activity Against Puccinia recondita f. sp. tritici/Wheat/Leaf Disc Preventative (Brown Rust) Wheat leaf segments cv. Kanzler were placed on agar in multiwell plates (24-well format) and sprayed with the formulated test compound diluted in water. The leaf disks were inoculated with a spore suspension of the fungus 1 day after application. The inoculated leaf segments were incubated at 19° C. and 75% rh under a light regime of 12 h light/12 h darkness in a climate cabinet and the activity of a compound was assessed as percent disease control compared to untreated when an appropriate level of disease damage appears in untreated check leaf segments (7-9 days after application).

[4] = tested on: Monographella nivalis (Microdochium nivale); experiment: Fungicidal activity against Monographella nivalis (Microdochium nivale) / liquid culture (foot rot cereals); format: cell-based; conditions: liquid culture (PDB), inhibition of growth determined photometrically 4-5 days after application, read-out: disease control
Description: Fungicidal Activity Against Monographella nivalis (Microdochium nivale)/Liquid Culture (Foot Rot Cereals) Conidia of the fungus from cryogenic storage were directly mixed into nutrient broth (PDB potato dextrose broth). After placing a (DMSO) solution of test compound into a microtiter plate (96-well format), the nutrient broth containing the fungal spores was added. The test plates were incubated at 24° C. and the inhibition of growth was determined photometrically 4-5 days after application.

[5] = tested on: Glomerella lagenarium (Colletotrichum lagenarium); experiment: Fungicidal activity against Glomerella lagenarium (Colletotrichum lagenarium) / liquid culture (anthracnose); format: cell-based; conditions: Colletotrichum orbiculare, liquid culture (PDB), inhibition of growth measured photometrically 3-4 days after application, read-out: disease control
Description: Fungicidal Activity Against Glomerella lagenarium (Colletotrichum lagenarium)/Liquid Culture (Anthracnose) Conidia of the fungus from cryogenic storage were directly mixed into nutrient broth (PDB potato dextrose broth). After placing a (DMSO) solution of test compound into a microtiter plate (96-well format), the nutrient broth containing the fungal spores was added. The test plates were incubated at 24° C. and the inhibition of growth was measured photometrically 3-4 days after application.

Gaeumannomyces graminis = experiment: Fungicidal activity against Gaeumannomyces graminis / liquid culture (take-all of cereals); format: cell-based; conditions: liquid culture (PDB), inhibition of growth determined photometrically 4-5 days after application, read-out: disease control
Description: Fungicidal Activity Against Gaeumannomyces graminis/Liquid Culture (Take-all of Cereals) Mycelial fragments of the fungus from cryogenic storage were directly mixed into nutrient broth (PDB potato dextrose broth). After placing a (DMSO) solution of test compound into a microtiter plate (96-well format), the nutrient broth containing the fungal spores is added. The test plates were incubated at 24° C. and the inhibition of growth was determined photometrically 4-5 days after application.

[6] = tested on: Phaeosphaeria nodorum (Septoria nodorum); experiment: Fungicidal activity against Phaeosphaeria nodorum (Septoria nodorum) / wheat / leaf disc preventative (glume blotch); format: in vivo; conditions: Parastagonospora nodorum, foliar, wheat leaf segments cv. Kanzler, inoculated 2 days after application, assessed 5-7 days after application, vs untreated, read-out: disease control
Description: Fungicidal Activity Against Phaeosphaeria nodorum (Septoria nodorum)/Wheat/Leaf Disc Preventative (Glume Blotch) Wheat leaf segments cv. Kanzler were placed on agar in a multiwell plate (24-well format) and sprayed with the formulated test compound diluted in water. The leaf disks were inoculated with a spore suspension of the fungus 2 days after application. The inoculated test leaf disks were incubated at 20° C. and 75% rh under a light regime of 12 h light/12 h darkness in a climate cabinet and the activity of a compound was assessed as percent disease control compared to untreated when an appropriate level of disease damage appears in untreated check leaf disks (5-7 days after application).

[7] = tested on: Botryotinia fuckeliana (Botrytis cinerea); experiment: Fungicidal activity against Botryotinia fuckeliana (Botrytis cinerea) / liquid culture (gray mould); format: cell-based; conditions: liquid culture (Vogels broth), inhibition of growth determined photometrically 3-4 days after application, read-out: disease control
Description: Fungicidal Activity Against Botryotinia fuckeliana (Botrytis cinerea)/Liquid Culture (Gray Mould) Conidia of the fungus from cryogenic storage were directly mixed into nutrient broth (Vogels broth). After placing a (DMSO) solution of test compound into a microtiter plate (96-well format), the nutrient broth containing the fungal spores was added. The test plates were incubated at 24° C. and the inhibition of growth was determined photometrically 3-4 days after application.

Pyrenophora teres = experiment: Fungicidal activity against Pyrenophora teres / barley / leaf disc preventative (net blotch); format: in vivo; conditions: foliar, barley leaf segments cv. Hasso, inoculated 2 days after application, assessed 5-7 days after application, vs untreated, read-out: disease control
Description: Fungicidal Activity Against Pyrenophora teres/Barley/Leaf Disc Preventative (Net Blotch) Barley leaf segments cv. Hasso were placed on agar in a multiwell plate (24-well format) and sprayed with the formulated test compound diluted in water. The leaf […] inoculated with a spore suspension of the fungus 2 days after application. The inoculated leaf segments were incubated at 20° C. and 65% rh under a light regime of 12 h light/12 h darkness in a climate cabinet and the activity of a compound was assessed as disease control compared to untreated when an appropriate level of disease damage appears in untreated check leaf segments (5-7 days after application).

Clc1nc(-c2cccc(Cc3ccccc3)n2)nc2sccc12 [Compound T3.1.33, 2-(6-benzyl-pyridin-2-yl)-4-chloro-thieno[2,3-d]pyrimidine]
≥ 80%: inhibition of growth at 200 ppm [1] | inhibition of growth at 200 ppm [2] | pest or weed control at 200 ppm [3] | inhibition of growth at 200 ppm [4] | inhibition of growth at 200 ppm [5] | inhibition of growth at 200 ppm (Gaeumannomyces graminis) | pest or weed control at 200 ppm [6]

COc1nc(-c2cccc(Cc3ccccc3)n2)nc2sccc12 [Compound T3.1.35, 2-(6-benzyl-pyridin-2-yl)-4-methoxy-thieno[2,3-d]pyrimidine]
≥ 80%: inhibition of growth at 200 ppm [1] | inhibition of growth at 200 ppm [2] | inhibition of growth at 200 ppm [4] | inhibition of growth at 200 ppm [5] | inhibition of growth at 200 ppm (Gaeumannomyces graminis) | pest or weed control at 200 ppm [6]

Cc1ccc(-c2ncc3cccnc3n2)nc1-c1ccccc1 [Compound T10.1.6, 2-(5-methyl-6-phenyl-pyridin-2-yl)-pyrido[2,3-d]pyrimidine]
≥ 80%: inhibition of growth at 200 ppm [7] | inhibition of growth at 200 ppm [1] | pest or weed control at 200 ppm (Pyrenophora teres) | inhibition of growth at 200 ppm [2] | pest or weed control at 200 ppm [3] | inhibition of growth at 200 ppm [4] | inhibition of growth at 200 ppm [5] | inhibition of growth at 200 ppm (Gaeumannomyces graminis) | pest or weed control at 200 ppm [6]

CCOc1nc(-c2cccc(Cc3ccccc3)n2)nc2sccc12 [Compound T15.1]
≥ 80%: inhibition of growth at 200 ppm [1] | inhibition of growth at 200 ppm [2] | pest or weed control at 200 ppm [3] | inhibition of growth at 200 ppm [4] | inhibition of growth at 200 ppm [5] | inhibition of growth at 200 ppm (Gaeumannomyces graminis)

c1ccc(Cc2cccc(-c3ncc4c5c(sc4n3)CCC5)n2)cc1 [Compound T15.2]
≥ 80%: inhibition of growth at 200 ppm [1] | inhibition of growth at 200 ppm (Gaeumannomyces graminis)

Cc1sc2nc(-c3cccc(Cc4ccccc4)n3)ncc2c1C [Compound T15.4]
≥ 80%: inhibition of growth at 200 ppm [7] | inhibition of growth at 200 ppm [1] | pest or weed control at 200 ppm (Pyrenophora teres) | inhibition of growth at 200 ppm [4] | inhibition of growth at 200 ppm (Gaeumannomyces graminis)

Cc1cc(F)ccc1-c1cccc(-c2nc(O)c3ccsc3n2)n1 [Compound T15.5]
≥ 80%: inhibition of growth at 200 ppm [7] | inhibition of growth at 200 ppm (Gaeumannomyces graminis)

Cc1ccc(C)c(-c2cccc(-c3nc(O)c4ccsc4n3)n2)c1 [Compound T15.7]
≥ 80%: inhibition of growth at 200 ppm [4] | inhibition of growth at 200 ppm (Gaeumannomyces graminis)

COc1nc(-c2cccc(-c3cc(C)ccc3C)n2)nc2sccc12 [Compound T15.8]
≥ 80%: inhibition of growth at 200 ppm [1] | pest or weed control at 200 ppm (Pyrenophora teres) | inhibition of growth at 200 ppm [2] | inhibition of growth at 200 ppm (Gaeumannomyces graminis)

COc1nc(-c2cccc(C#CC3CC3)n2)nc2sccc12 [Compound T15.9]
≥ 80%: inhibition of growth at 200 ppm [1] | inhibition of growth at 200 ppm [4] | inhibition of growth at 200 ppm (Gaeumannomyces graminis)

Cc1cccc(-c2nc(-c3ccccc3)c3ncccc3n2)n1 [Compound T15.10]
≥ 80%: inhibition of growth at 200 ppm [7] | inhibition of growth at 200 ppm [1] | pest or weed control at 200 ppm (Pyrenophora teres) | inhibition of growth at 200 ppm [2] | pest or weed control at 200 ppm [3] | inhibition of growth at 200 ppm [5] | inhibition of growth at 200 ppm (Gaeumannomyces graminis) | pest or weed control at 200 ppm [6]

COc1cccc(-c2nc(-c3cccc(C)n3)nc3sccc23)c1 [Compound T15.11]
≥ 80%: inhibition of growth at 200 ppm [7] | inhibition of growth at 200 ppm [1] | pest or weed control at 200 ppm (Pyrenophora teres) | inhibition of growth at 200 ppm [2] | pest or weed control at 200 ppm [3] | inhibition of growth at 200 ppm [4] | inhibition of growth at 200 ppm [5] | inhibition of growth at 200 ppm (Gaeumannomyces graminis) | pest or weed control at 200 ppm [6]

Cc1cccc(-c2nc(-c3cccc(C)n3)nc3sccc23)c1 [Compound T15.12]
≥ 80%: inhibition of growth at 200 ppm [7] | inhibition of growth at 200 ppm [1] | pest or weed control at 200 ppm (Pyrenophora teres) | inhibition of growth at 200 ppm [2] | pest or weed control at 200 ppm [3] | inhibition of growth at 200 ppm [4] | inhibition of growth at 200 ppm [5] | inhibition of growth at 200 ppm (Gaeumannomyces graminis) | pest or weed control at 200 ppm [6]

Cc1cccc(-c2nc(-c3ccccc3C)c3ccsc3n2)n1 [Compound T15.13]
≥ 80%: inhibition of growth at 200 ppm [7] | inhibition of growth at 200 ppm [1] | inhibition of growth at 200 ppm [2] | inhibition of growth at 200 ppm [5] | inhibition of growth at 200 ppm (Gaeumannomyces graminis) | pest or weed control at 200 ppm [6]

Cc1cccc(-c2nc(-c3ccccc3Cl)c3ccsc3n2)n1 [Compound T15.14]
≥ 80%: inhibition of growth at 200 ppm [7] | inhibition of growth at 200 ppm [1] | pest or weed control at 200 ppm (Pyrenophora teres) | inhibition of growth at 200 ppm [2] | inhibition of growth at 200 ppm [5] | inhibition of growth at 200 ppm (Gaeumannomyces graminis) | pest or weed control at 200 ppm [6]

Cc1cccc(-c2nc(-c3ccc(Cl)cc3)c3ccsc3n2)n1 [Compound T15.15]
≥ 80%: inhibition of growth at 200 ppm [7] | inhibition of growth at 200 ppm [1] | pest or weed control at 200 ppm (Pyrenophora teres) | inhibition of growth at 200 ppm [2] | pest or weed control at 200 ppm [3] | inhibition of growth at 200 ppm [4] | inhibition of growth at 200 ppm [5] | inhibition of growth at 200 ppm (Gaeumannomyces graminis) | pest or weed control at 200 ppm [6]
